Key:
Assay type in all cases: in vivo
Details in all cases: evaluated after 13 days
[1] = test system: Ipomoea hederacea (IPOHE); test: Post-emergence Test, Ipomoea hederacea (IPOHE); design: key to percentage damage caused to the plant, IPOHE (five-point scale): 5=81-100%, 4=61-80%, 3=41-60%, 2=21-40%, 1=0-20% damage
Method in brief: (§1)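 Percent plant damage was rated 13 days post-application on a 1–5 scale (1=0-20%, 5=81-100%). Application used an aqueous acetone (50:50)/0.5% Tween 20 spray, normally 1000 g/ha, with controlled glasshouse conditions (24/16 °C, 14 h light, 65% humidity).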

[2] = test system: Setaria faberi (SETFA); test: Pre-emergence Test, Setaria faberi (SETFA)
[3] = test system: Echinochloa crus-galli (ECHCG); test: Pre-emergence Test, Echinochloa crus-galli (ECHCG)
[4] = test system: Setaria faberi (SETFA); test: Post-emergence Test, Setaria faberi (SETFA); design: key to percentage damage caused to the plant, SETFA (five-point scale): 5=81-100%, 4=61-80%, 3=41-60%, 2=21-40%, 1=0-20% damage
Method in brief: as §1

[5] = test system: Ipomoea hederacea (IPOHE); test: Pre-emergence Test, Ipomoea hederacea (IPOHE)
[6] = test system: Amaranthus palmeri (AMAPA); test: Pre-emergence Test, Amaranthus palmeri (AMAPA)
[7] = test system: Echinochloa crus-galli (ECHCG); test: Post-emergence Test, Echinochloa crus-galli (ECHCG); design: key to percentage damage caused to the plant, ECHCG (five-point scale): 5=81-100%, 4=61-80%, 3=41-60%, 2=21-40%, 1=0-20% damage
Method in brief: as §1

[8] = test system: Amaranthus retoflexus (AMARE); test: Pre-emergence Test, Amaranthus retoflexus (AMARE)
[9] = test system: Amaranthus palmeri (AMAPA); test: Post-emergence Test, Amaranthus palmeri (AMAPA); design: key: 5=81-100%, 4=61-80%, 3=41-60%, 2=21-40%, 1=0-20% damage
Method in brief: as §1

[10] = test system: Amaranthus retoflexus (AMARE); test: Post-emergence Test, Amaranthus retoflexus (AMARE); design: key to percentage damage caused to the plant, AMARE (five-point scale): 5=81-100%, 4=61-80%, 3=41-60%, 2=21-40%, 1=0-20% damage
Method in brief: as §1

[11] = test system: Zea mays (ZEAMX); test: Pre-emergence Test, Zea mays (ZEAMX)
[12] = test system: Zea mays (ZEAMX); test: Post-emergence Test, Zea mays (ZEAMX); design: key to percentage damage caused to the plant, ZEAMX (five-point scale): 5=81-100%, 4=61-80%, 3=41-60%, 2=21-40%, 1=0-20% damage
Method in brief: as §1

| Structure (SMILES) | percentage damage caused to the plant, IPOHE (five-point scale) ([1]; 1000 g/ha) | Pre-emergence Test SETFA, percentage damage caused to the plant (five-point scale) ([2]; 1000 g/ha) | Pre-emergence Test ECHCG, percentage damage caused to the plant (five-point scale) ([3]; 1000 g/ha) | percentage damage caused to the plant, SETFA (five-point scale) ([4]; 1000 g/ha) | Pre-emergence Test IPOHE, percentage damage caused to the plant (five-point scale) ([5]; 1000 g/ha) | Pre-emergence Test AMAPA, percentage damage caused to the plant (five-point scale) ([6]; 1000 g/ha) | percentage damage caused to the plant, ECHCG (five-point scale) ([7]; 1000 g/ha) | Pre-emergence Test AMARE, percentage damage caused to the plant (five-point scale) ([8]; 1000 g/ha) | percentage damage caused to the plant, AMAPA (five-point scale) ([9]; 1000 g/ha) | percentage damage caused to the plant, AMARE (five-point scale) ([10]; 1000 g/ha) | Pre-emergence Test ZEAMX, percentage damage caused to the plant (five-point scale) ([11]; 1000 g/ha) | percentage damage caused to the plant, ZEAMX (five-point scale) ([12]; 1000 g/ha) | percentage damage caused to the plant, IPOHE (five-point scale) ([1]; 250 g/Ha) | percentage damage caused to the plant, SETFA (five-point scale) ([4]; 250 g/Ha) | percentage damage caused to the plant, ECHCG (five-point scale) ([7]; 250 g/Ha) | percentage damage caused to the plant, AMAPA (five-point scale) ([9]; 250 g/Ha) | percentage damage caused to the plant, AMARE (five-point scale) ([10]; 250 g/Ha) | percentage damage caused to the plant, ZEAMX (five-point scale) ([12]; 250 g/Ha) | Pre-emergence Test SETFA, percentage damage caused to the plant (five-point scale) ([2]; 250 g/Ha (*)) | Pre-emergence Test ECHCG, percentage damage caused to the plant (five-point scale) ([3]; 250 g/Ha (*)) | also measured |
| --- | --- | --- | --- | --- | --- | --- | --- | --- | --- | --- | --- | --- | --- | --- | --- | --- | --- | --- | --- | --- | --- |
| CCOC(=O)c1cc(C(=O)OCC)n(Cc2cc(=O)c(C(=O)O)c(-c3ccc(Cl)c(Cl)c3)n2CC)n1 [Compound 112, 6-[[3,5-bis(ethoxycarbonyl)pyrazol-1-yl]methyl]-2-(3,4-dichlorophenyl)-1-ethyl-4-oxo-pyridine-3-carboxylic acid] | 2 (2=21-40%) | 0 | 0 | 1 (1=0-20%) | 0 | 1 (1=0-20%) | 2 (2=21-40%) | 1 (1=0-20%) | 1 (1=0-20%) | 1 (1=0-20%) | 0 | 0 |  |  |  |  |  |  |  |  |  |
| CCn1c(Cn2nc(C(=O)OC)cc2C(=O)OC)cc(=O)c(C(=O)O)c1-c1ccc(Cl)c(Cl)c1 [Compound 115, 6-[[3,5-bis(methoxycarbonyl)pyrazol-1-yl]methyl]-2-(3,4-dichlorophenyl)-1-ethyl-4-oxo-pyridine-3-carboxylic acid] | 0 | 1 (1=0-20%) | 0 | 0 | 0 | 1 (1=0-20%) | 0 | 0 | 2 (2=21-40%) | 0 | 0 | 1 (1=0-20%) | 0 | 0 | 0 | 1 (1=0-20%) | 1 (1=0-20%) | 0 |  |  |  |
| Cn1c(Cn2ccc(C(F)(F)F)n2)cc(=O)c(C(=O)O)c1-c1ccc(C#N)c(Cl)c1 [Compound 117, 2-(3-chloro-4-cyano-phenyl)-1-methyl-4-oxo-6-[[3-(trifluoromethyl)pyrazol-1-yl]methyl]pyridine-3-carboxylic acid] | 3 (3=41-60%) | 5 (5=81-100%) | 4 (4=61-80%) | 4 (4=61-80%) | 2 (2=21-40%) | 2 (2=21-40%) | 4 (4=61-80%) | 2 (2=21-40%) | 2 (2=21-40%) | 1 (1=0-20%) | 1 (1=0-20%) | 4 (4=61-80%) | 3 (3=41-60%) | 3 (3=41-60%) | 3 (3=41-60%) | 0 | 0 | 1 (1=0-20%) | 4 (4=61-80%) | 3 (3=41-60%) | Pre-emergence Test IPOHE, percentage damage caused to the plant (five-point scale) ([5]; 250 g/Ha (*)): 0; Pre-emergence Test AMAPA, percentage damage caused to the plant (five-point scale) ([6]; 250 g/Ha (*)): 1 (1=0-20%); Pre-emergence Test AMARE, percentage damage caused to the plant (five-point scale) ([8]; 250 g/Ha (*)): 0; Pre-emergence Test ZEAMX, percentage damage caused to the plant (five-point scale) ([11]; 250 g/Ha (*)): 0 |
| CCn1c(Cn2ccc(Cl)n2)cc(=O)c(C(=O)O)c1-c1ccc(C#N)c(Cl)c1 [Compound 119, 2-(3-chloro-4-cyano-phenyl)-6-[(3-chloropyrazol-1-yl)methyl]-1-ethyl-4-oxo-pyridine-3-carboxylic acid] | 2 (2=21-40%) | 4 (4=61-80%) | 3 (3=41-60%) | 4 (4=61-80%) | 0 | 1 (1=0-20%) | 4 (4=61-80%) | 0 |  | 0 | 0 | 0 | 1 (1=0-20%) | 1 (1=0-20%) | 1 (1=0-20%) | 0 | 1 (1=0-20%) | 0 | 3 (3=41-60%) | 1 (1=0-20%) | Pre-emergence Test IPOHE, percentage damage caused to the plant (five-point scale) ([5]; 250 g/Ha (*)): 0; Pre-emergence Test AMAPA, percentage damage caused to the plant (five-point scale) ([6]; 250 g/Ha (*)): 1 (1=0-20%); Pre-emergence Test AMARE, percentage damage caused to the plant (five-point scale) ([8]; 250 g/Ha (*)): 0; Pre-emergence Test ZEAMX, percentage damage caused to the plant (five-point scale) ([11]; 250 g/Ha (*)): 0 |
| CCOC(=O)c1nn(Cc2cc(=O)c(C(=O)O)c(-c3ccc(Cl)c(Cl)c3)n2CC)cc1C [Compound 123, 2-(3,4-dichlorophenyl)-6-[(3-ethoxycarbonyl-4-methyl-pyrazol-1-yl)methyl]-1-ethyl-4-oxo-pyridine-3-carboxylic acid] | 2 (2=21-40%) | 1 (1=0-20%) | 0 | 1 (1=0-20%) | 0 | 1 (1=0-20%) | 1 (1=0-20%) | 0 |  | 1 (1=0-20%) | 0 | 1 (1=0-20%) | 0 | 0 | 2 (2=21-40%) | 0 | 0 | 0 |  |  |  |
| CCn1c(Cn2ncnc2OC)cc(=O)c(C(=O)O)c1-c1ccc(Cl)c(Cl)c1 [Compound 124, 2-(3,4-dichlorophenyl)-1-ethyl-6-[(5-methoxy-1,2,4-triazol-1-yl)methyl]-4-oxo-pyridine-3-carboxylic acid] |  |  |  |  |  |  |  |  |  |  |  |  | 0 | 2 (2=21-40%) | 4 (4=61-80%) | 0 | 1 (1=0-20%) | 1 (1=0-20%) | 0 | 0 | Pre-emergence Test IPOHE, percentage damage caused to the plant (five-point scale) ([5]; 250 g/Ha (*)): 0; Pre-emergence Test AMAPA, percentage damage caused to the plant (five-point scale) ([6]; 250 g/Ha (*)): 1 (1=0-20%); Pre-emergence Test AMARE, percentage damage caused to the plant (five-point scale) ([8]; 250 g/Ha (*)): 1 (1=0-20%); Pre-emergence Test ZEAMX, percentage damage caused to the plant (five-point scale) ([11]; 250 g/Ha (*)): 0 |

— patent US20250098679A1, “HERBICIDAL PYRIDONE DERIVATIVES” (SYNGENTA CROP PROTECTION AG, priority 2021, published 2025)
